Measurements reported in patent US20230295164A1, “COMPOUNDS HAVING ANTIBACTERIAL ACTIVITY” (The Trustees of Princeton University, priority 2020, published 2023).

Assays:
Assay in all cases: MIC testing, broth microdilution in CAMHB
Assay type in all cases: cell-based
Conditions in all cases: 37° C., 18-20 hr, lowest concentration that completely inhibits visible growth
[1] = tested on: Acinetobacter baumannii, ATCC 17978
Description: (§1) Compounds 1-71 were subsequently tested to determine MICs of the compounds relative to the following five species/strains of bacteria: Staphylococcus aureus, NRS384; Enterococcus faecalis, ATCC 51575; Salmonella typhimurium, CMCC 50115; Escherichia coli, ATCC BAA-198; and Acinetobacter baumannii, ATCC 17978. MIC testing of compounds was conducted according to the following protocol.
(§2) For each strain to be tested, made fresh streaks onto CAMHA from −80° C. glycerol stocks.
(§3) • CAMHB: Dissolved 22 g of the powder per 1 L of purified water. Mixed well. Autoclaved at 121° C. for 10 minutes. Stored at room temperature (RT) for no more than 1 week. • Saline: Dissolved 9 g of the powder per 1 L of purified water. Mixed well. Autoclaved at 121° C. for 30 minutes. Stored at room temperature (RT) for no more than 1 week.
(§4) Prepared the stock solutions of the tested compounds.
(§5) For compounds: • a) Dispensed 20 ul compound to the wells in column 1, and 20 ul DMSO to the wells in column 2 to 12; • b) Diluted the compounds by transferring 10 ul compounds from column 1 to 20 ul DMSO in column 2; mix with pipette. • c) Repeated until column 11 to get 3×serial dilutions. Column 12 was the DMSO control.
(§6) A multichannel pipette was used to deliver 1 μl of the diluted compound into each well of the corresponding daughter plate.
(§7) Scraped 4-8 single colonies from an agar plate into 5 ml saline in a 14 ml Falcon conical tube. Vortexed the tube to suspend the bacteria. Adjusted the turbidity to ˜0.2 (corresponding to 0.5 McFarland) with an Ultrospec 10 Cell density meter.
(§8) The strain suspension was diluted 200-fold in CAMHB medium and dispense into a sterile reservoir. A multichannel pipette was then used to deliver 99 μl of the diluted inocula into each well of the corresponding daughter plate.
(§9) Incubate the daughter plates at 37° C., 85% humidity for 18-20 hr.
(§10) A magnifying mirror device was used for ease of scoring the presence or absence of growth in the wells. 96-well micro-plates were photographed.

[2] = tested on: Escherichia coli, ATCC BAA-198
Description: as §1, §2, §3, §4, §5, §6, §7, §8, §9, §10

[3] = tested on: Enterococcus faecalis, ATCC 51575
Description: as §1, §2, §3, §4, §5, §6, §7, §8, §9, §10

[4] = tested on: Staphylococcus aureus, NRS384
Description: as §1, §2, §3, §4, §5, §6, §7, §8, §9, §10

[5] = tested on: Salmonella typhimurium, CMCC 50115
Description: as §1, §2, §3, §4, §5, §6, §7, §8, §9, §10

Row | Compound | Compound MICs, Acinetobacter baumannii, ATCC 17978 [1] | Compound MICs, Escherichia coli, ATCC BAA-198 [2] | Compound MICs, Enterococcus faecalis, ATCC 51575 [3] | Compound MICs, Staphylococcus aureus, NRS384 [4] | Compound MICs, Salmonella typhimurium, CMCC 50115 [5]
1 | C=Cc1ccc(Cn2ccc3c4c(N)nc(N)nc4ccc32)cc1 [Compound 33] | 7.11 µg/mL | 2.37 µg/mL | 0.03 µg/mL | 0.26 µg/mL | 0.26 µg/mL
2 | Nc1nc(N)c2c(ccc3c2ccn3Cc2ccc([N+](=O)[O-])cc2)n1 [Compound 34] | 21.3 µg/mL | 7.11 µg/mL | 0.09 µg/mL | 0.26 µg/mL | 0.26 µg/mL
3 | Nc1nc(N)c2c(ccc3c2ccn3CCc2ccc(F)cc2)n1 [Compound 39] | 21.3 µg/mL | 7.11 µg/mL | 0.09 µg/mL | 0.79 µg/mL | 2.37 µg/mL
4 | COc1ccc(-c2cc3c(ccn3Cc3ccc(F)cc3)c3c(N)nc(N)nc23)cc1 [Compound 41] | 21.3 µg/mL | 64 µg/mL | 0.09 µg/mL | 2.37 µg/mL | 0.79 µg/mL
5 | Cc1ccc(Cn2ccc3c4c(N)nc(N)nc4ccc32)c2ccccc12 [Compound 42] | 7.11 µg/mL | 7.11 µg/mL | 0.01 µg/mL | 0.03 µg/mL | 0.79 µg/mL
6 | Nc1nc(N)c2c(n1)c(-c1cccnc1)cc1c2ccn1Cc1ccc(F)cc1 [Compound 43] | 64 µg/mL | 64 µg/mL | 0.09 µg/mL | 2.37 µg/mL | 2.37 µg/mL
7 | Nc1nc(N)c2c(ccc3c2ccn3Cc2ccc(Br)c3ccccc23)n1 [Compound 44] | 64 µg/mL | 7.11 µg/mL | 0.03 µg/mL | 0.09 µg/mL | 7.11 µg/mL
8 | Nc1nc(N)c2c(n1)c(Br)cc1c2ccn1Cc1ccc(F)cc1 [Compound 46] | 7.11 µg/mL | >64 µg/mL | ≤0.001 µg/mL | 0.79 µg/mL | 2.37 µg/mL
9 | C#Cc1ccc(Cn2ccc3c4c(N)nc(N)nc4c(Br)cc32)cc1 [Compound 47] | >64 µg/mL | >64 µg/mL | 0.003 µg/mL | 0.09 µg/mL | 2.37 µg/mL
10 | Nc1nc(N)c2c(n1)c(C1CC1)cc1c2ccn1Cc1ccc(F)cc1 [Compound 49] | >64 µg/mL | >64 µg/mL | 0.26 µg/mL | 2.37 µg/mL | 2.37 µg/mL
11 | Nc1nc(N)c2c(ccc3c2ccn3Cc2ccc(C(F)(F)F)nc2)n1 [Compound 50] | 7.11 µg/mL | 7.11 µg/mL | 0.003 µg/mL | 0.09 µg/mL | 0.03 µg/mL
12 | Nc1nc(N)c2c(ccc3c2ccn3Cc2ccc(B(O)O)cc2)n1 [Compound 51] | >64 µg/mL | 21.3 µg/mL | 0.003 µg/mL | 0.26 µg/mL | 0.26 µg/mL
13 | Nc1nc(N)c2c(n1)c(-c1ccc(F)cc1)cc1c2ccn1Cc1ccc(F)cc1 [Compound 52] | >64 µg/mL | >64 µg/mL | 2.37 µg/mL | 7.11 µg/mL | 21.3 µg/mL
14 | N#Cc1cncc(Cn2ccc3c4c(N)nc(N)nc4ccc32)c1 [Compound 53] | 64 µg/mL | 21.3 µg/mL | 0.26 µg/mL | 0.26 µg/mL | 0.26 µg/mL
15 | C=C(Cn1ccc2c3c(N)nc(N)nc3c(Br)cc21)C(=O)OC [Compound 54] | 64 µg/mL | >64 µg/mL | 0.003 µg/mL | 2.37 µg/mL | 21.3 µg/mL
16 | Cc1cc2c(ccn2Cc2ccc(F)cc2)c2c(N)nc(N)nc12 [Compound 55] | 2.37 µg/mL | 7.11 µg/mL | 0.03 µg/mL | 0.26 µg/mL | 0.26 µg/mL
17 | Nc1nc(N)c2c(ccc3c2ccn3Cc2ccnc(F)c2)n1 [Compound 56] | 2.37 µg/mL | 7.11 µg/mL | 0.01 µg/mL | 0.03 µg/mL | 0.03 µg/mL
18 | N#Cc1ccc(Cn2ccc3c4c(N)nc(N)nc4ccc32)s1 [Compound 57] | 7.11 µg/mL | 7.11 µg/mL | 0.03 µg/mL | 0.09 µg/mL | 0.09 µg/mL
19 | Nc1nc(N)c2c(ccc3c2ccn3Cc2ccc(-c3ccccc3)cn2)n1 [Compound 58] | 2.37 µg/mL | 7.11 µg/mL | 0.03 µg/mL | 0.09 µg/mL | 0.26 µg/mL
20 | CC(C)c1ccc(Cn2ccc3c4c(N)nc(N)nc4ccc32)nc1 [Compound 59] | 7.11 µg/mL | 21.3 µg/mL | 0.03 µg/mL | 0.26 µg/mL | 0.26 µg/mL
21 | Nc1nc(N)c2c(ccc3c2ccn3Cc2csc(C(F)(F)F)n2)n1 [Compound 60] | 21.3 µg/mL | 7.11 µg/mL | 0.09 µg/mL | 0.79 µg/mL | 0.79 µg/mL
